From patent US20050209157A1, “Short bioactive peptides and methods for their use” (priority 2001, published 2005)
Where two headings read alike, the source gives them in different places. No end group written: not given here.

Experiments:
[1] = test system: yeast (Saccharomyces cerevisiae); test: Antimicrobial assay I, yeast assay in RPMI 1640; type: cell-based; conditions: RPMI 1640 media
[2] = test system: Staphylococcus aureus ATCC 6538; test: Antimicrobial assay I, MIC by OD measurement; type: cell-based; conditions: 37° C. for 24 hours, absorbance 620 nm
[3] = test system: Pseudomonas aeruginosa ATCC 9027; test: Antimicrobial assay I, MIC by OD measurement; type: cell-based; conditions: 37° C. for 24 hours, absorbance 620 nm
S. pyogenes M76 = test: Antimicrobial assays II, NCCLS broth microdilution MIC; type: cell-based, Streptococcus pyogenes; conditions: mean of three; 16 to 20 hours at 35° C.
H1299 = test: Anti-cancer assay, MTT, LD50; type: cell-based; conditions: 24 hours with peptide, lung large cell carcinoma
Excerpt: (§1) Numbers are LD50 values (μg/mL).

SW480 = test: Anti-cancer assay, MTT, LD50; type: cell-based; conditions: SW480 colon adenocarcinoma line, 24 hours with peptide
Excerpt: as §1

HeLaS3 = test: Anti-cancer assay, MTT, LD50; type: cell-based; conditions: 24 hours with peptide, cervical carcinoma
Excerpt: as §1

PC3 = test: Anti-cancer assay, MTT, LD50; type: cell-based; conditions: 24 hours with peptide, prostate adenocarcinoma
Excerpt: as §1

BMKC = test: Anti-cancer assay, MTT, LD50; type: cell-based; conditions: BMKC cloned melanoma line, 24 hours with peptide
Excerpt: as §1

MCF7 = test: Anti-cancer assay, MTT, LD50; type: cell-based; conditions: MCF7 breast adenocarcinoma line, MTT, 24 hours with peptide
Excerpt: as §1

S. pyogenes ATCC19615 = test: Antimicrobial assays II, NCCLS broth microdilution MIC; type: cell-based, Streptococcus pyogenes; conditions: mean of three, in µg/mL
P. acne ATCC 6919 = test: as above; type: cell-based, Propionibacterium acnes; conditions: mean of three, in µg/mL
S. pneumoniae C718 = test: as above; type: cell-based, Streptococcus pneumoniae; conditions: mean of three
in vitro [4] = conditions: human, WI38 normal lung fibroblast cells, LD50 WI38, WI38 normal lung fibroblast line, MTT, 24 hours with peptide
in vitro [5] = type: cell-based, human; conditions: human, human red blood cells, pH 7, hemolytic assay, concentration at 50% hemolysis, 1 hour at 37° C.; read-out: LD50
S. aureus (MRSA) = type: cell-based, Staphylococcus aureus; conditions: mean of three; 16 to 20 hours at 35° C.
S. epidermidis C621 = type: cell-based, Staphylococcus epidermidis; conditions: mean of three; 16 to 20 hours at 35° C.
P. aeruginosa H374 = type: cell-based, Pseudomonas aeruginosa; conditions: for MIC Cm-comb.: MIC of chloramphenicol with peptide at ¼ MIC; for MIC Nal-comb.: MIC of nalidixic acid with peptide at ¼ MIC; for FIC Index: 0.5 or less = synergy
Procedure, shortened: (§2)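 Efflux-mutant strains were tested with two-fold serial dilutions of chloramphenicol or nalidixic acid, alone and with peptide held at ¼ of its own MIC.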

P. aeruginosa H774 = type: cell-based, Pseudomonas aeruginosa; conditions: P. aeruginosa H744; nalidixic acid + peptide at ¼ MIC; 0.5 or less = synergy
Procedure, shortened: as §2

P. aeruginosa = type: cell-based, Pseudomonas aeruginosa; conditions: P. aeruginosa H744; MIC of nalidixic acid with peptide at ¼ MIC
Procedure, shortened: as §2

WI38 = conditions: MTT, 24 hours with peptide; normal fibroblast line
S. pneumoniae C719 = test: Antimicrobial assays II, NCCLS broth microdilution MIC; type: cell-based, Streptococcus pneumoniae; conditions: mean of three, in µg/mL
[6] = chloramphenicol + peptide at ¼ MIC
[7] = nalidixic acid + peptide at ¼ MIC, FIC=0.25+MIC comb/MIC alone

Row | Substance | yeast (MIC or MFC) [1] | staph6538 (MIC) [2] [µg/mL] | paerug9027 (MIC) [3] [µg/mL] | S. pyogenes M76 MIC (S. pyogenes M76) [µg/mL] | H1299 LD50 (H1299) [µg/mL] | LD50 SW480 (SW480) [µg/mL] | HeLaS3 LD50 (HeLaS3) [µg/mL] | PC3 LD50 (PC3) [µg/mL] | LD50 BMKC (BMKC) [µg/mL] | LD50 MCF7 (MCF7) [µg/mL] | S. pyogenes MIC (S. pyogenes ATCC19615) | P. acne MIC (P. acne ATCC 6919) | S. pneumoniae MIC (S. pneumoniae C718) [µg/mL] | CC50 at 24 h (in vitro [4]) [µg/mL] | HC50 at 1 h (in vitro [5]) [µg/mL] | S. aureus (MRSA) MIC (S. aureus (MRSA)) [µg/mL] | S. epidermidis C621 MIC (S. epidermidis C621) [µg/mL] | MIC Cm-comb. (P. aeruginosa H374) [µg/mL] | MIC Nal-comb. (P. aeruginosa H374) [µg/mL] | FIC Index (P. aeruginosa H374; [6]) | further results
1 | FAKLLAKALKKLL-NH2 [P55] | 25 µg/mL | 5 | 5 | 4 | 7 | 14 | 15 | 47 | 16 | 16 | 2 | 4 | 8 | 32 | 20 | 4 | 2 | 16 | 5000 | 1.25 | FIC Index (P. aeruginosa H374; [7]): 1.25; FIC Index (P. aeruginosa H774): 1.25; MIC Nal-comb. (P. aeruginosa): 624 µg/mL; WI38 LD50 (WI38): 32 µg/mL; S. pneumoniae MIC (S. pneumoniae C719): 4
2 | FAKFLAKFLKKAL-NH2 [P111, FAKFLAKFLKKAL-NH2] | 200 µg/mL | 5 | 100 | 4 | 8 | 27 | 7 | 11 | 26 | 35 | 2 | 4 | 16 | 24 | 60 | 8 | 4 | 16 | 2500 | 1.25 | FIC Index (P. aeruginosa H374; [7]): 0.75; FIC Index (P. aeruginosa H774): 1.25; MIC Nal-comb. (P. aeruginosa): 624 µg/mL; WI38 LD50 (WI38): 24 µg/mL; S. pneumoniae MIC (S. pneumoniae C719): 4
3 | FAKLLAKALKKFAL-NH2 [P119, FAKLLAKALKKFAL-NH2] | 50 µg/mL | 50 | 25 | 8 | 33 | 46 | 30 | 140 | 36 | 54 | 8 | 8 | 128 | 45 | 400 | 8 | 4 | 16 | 2500 | 1.25 | FIC Index (P. aeruginosa H374; [7]): 0.75; FIC Index (P. aeruginosa H774): 1.25; MIC Nal-comb. (P. aeruginosa): 624 µg/mL; WI38 LD50 (WI38): 45 µg/mL; S. pneumoniae MIC (S. pneumoniae C719): 32
4 | FALAKLAKKAKAKLKKALKAL-NH2 [P26] | > (> indicates greater than 200 μg/mL) | 10 | 15 | 4 | 84 | 8 | 150 | 125 | 94 | 74 | 4 | 4 | > 128 | 96 | 90 | 32 | 4 | 8 | 2500 | 0.75 | FIC Index (P. aeruginosa H374; [7]): 0.75; FIC Index (P. aeruginosa H774): 1.25; MIC Nal-comb. (P. aeruginosa): 624 µg/mL; WI38 LD50 (WI38): 96 µg/mL; S. pneumoniae MIC (S. pneumoniae C719): 16
5 | FAKLLAKLAKKLL-NH2 [P43] | 25 µg/mL | 5 | 100 | 2 | 6 | 9 | 15 | 12 | 7 | 9 | 2 | 2 | 8 | 5 | 20 | 4 | 2 | 16 | 5000 | 1.25 | FIC Index (P. aeruginosa H374; [7]): 1.25; FIC Index (P. aeruginosa H774): 1.25; MIC Nal-comb. (P. aeruginosa): 624 µg/mL; WI38 LD50 (WI38): 5 µg/mL; S. pneumoniae MIC (S. pneumoniae C719): 4
6 | FALALKALKKLAKKLKKLAKKAL-NH2 [P25] | 25 µg/mL | 10 | 5 | 8 | 37 | 12 | 20 | 12 | 36 | 10 | 8 | 2 | 64 | 24 | 16 | 16 | 4 | 4 | 2500 | 0.5 | FIC Index (P. aeruginosa H374; [7]): 0.75; FIC Index (P. aeruginosa H774): 0.5; MIC Nal-comb. (P. aeruginosa): 156 µg/mL; WI38 LD50 (WI38): 24 µg/mL; S. pneumoniae MIC (S. pneumoniae C719): 8
7 | FALALKKALKALKKAL-NH2 [P34] | 25 µg/mL | 5 | 50 | 4 | 24 | 35 | 62 | 9 | 53 | 21 | 4 | 8 | 8 | 40 | 200 | 16 | 8 | 16 | 2500 | 1.25 | FIC Index (P. aeruginosa H374; [7]): 0.75; FIC Index (P. aeruginosa H774): 1.25; MIC Nal-comb. (P. aeruginosa): 624 µg/mL; WI38 LD50 (WI38): 40 µg/mL; S. pneumoniae MIC (S. pneumoniae C719): 8
8 | FAKKLAKKLAKLL-NH2 [P75] | 50 µg/mL | 5 | 5 | 8 | 80 | 17 | 74 | 54 | 24 | 42 | 4 | 16 | > 128 | 80 | 750 | 32 | 8 | 8 | 2500 | 0.75 | FIC Index (P. aeruginosa H374; [7]): 0.75; FIC Index (P. aeruginosa H774): 1.25; MIC Nal-comb. (P. aeruginosa): 624 µg/mL; WI38 LD50 (WI38): 80 µg/mL; S. pneumoniae MIC (S. pneumoniae C719): 64
